According to the NIST ThermoML archive (doi:10.1016/j.tca.2011.11.009):

Details: Liquid, Vibrating tube method

CCCC[n+]1ccc(C)cc1.N#C[S-] [1-butyl-4-methylpyridinium thiocyanate]
mass density [kg/m3]
Details	298.15 K	308.15 K	318.15 K	328.15 K	338.15 K
100 kPa	1061.57	1055.36	1049.83	1044.2	1037.12
200 kPa	1061.61	1055.39	1049.88	1044.23	1037.15
300 kPa	1061.64	1055.43	1049.93	1044.29	1037.18
400 kPa	1061.66	1055.48	1049.96	1044.33	1037.18
500 kPa	1061.7	1055.53	1050.03	1044.34	1037.24
600 kPa	1061.74	1055.59	1050.06	1044.41	1037.29
800 kPa	1061.81	1055.69	1050.13	1044.45	1037.35
1000 kPa	1061.88	1055.77	1050.2	1044.55	1037.43
2000 kPa	1062.24	1056.11	1050.6	1044.93	1037.83
4000 kPa	1062.95	1056.86	1051.37	1045.71	1038.61
6000 kPa	1063.68	1057.62	1052.12	1046.49	1039.4
8000 kPa	1064.4	1058.35	1052.88	1047.26	1040.18
10000 kPa	1065.1	1059.08	1053.61	1048.01	1040.98

CCn1cc[n+](C)c1.N#C[S-] [1-ethyl-3-methylimidazolium thiocyanate]
mass density [kg/m3]
Details	298.15 K	308.15 K	318.15 K	328.15 K	338.15 K
100 kPa	1116.69	1110.39	1104.8	1098.18	1092.87
200 kPa	1116.71	1110.42	1104.83	1098.22	1092.93
300 kPa	1116.72	1110.47	1104.87	1098.27	1092.97
400 kPa	1116.77	1110.5	1104.91	1098.31	1093
500 kPa	1116.82	1110.54	1104.97	1098.32	1093.05
600 kPa	1116.86	1110.59	1105	1098.38	1093.11
800 kPa	1116.92	1110.68	1105.04	1098.43	1093.18
1000 kPa	1117	1110.74	1105.13	1098.54	1093.24
2000 kPa	1117.35	1111.1	1105.5	1098.87	1093.64
4000 kPa	1118.04	1111.81	1106.24	1099.64	1094.38
6000 kPa	1118.74	1112.53	1106.96	1100.38	1095.15
8000 kPa	1119.43	1113.24	1107.68	1101.1	1095.91
10000 kPa	1120.11	1113.94	1108.39	1101.83	1096.65
